Where a name gives a salt, the structure may show the parent alone.

By ED50 is commonly meant the dose at which the effect has come halfway, by size or by number of responders. What is called pKa is the pH at which an ionisable group is half protonated. High values mean a weaker acid or stronger base, low ones a stronger acid or weaker base.

For the first data set, the system named is acetic acid-induced writhing in mice. Description: Analgesic writhing test (inhibition of acetic acid-induced writhing). The format is in vivo, Standard strain albino male mice. The following applies: Mus musculus, sc, read-out: Analgesic Writhing Test Subcutaneous ED50. Here is the method: A method similar to that reported by Koster, R., et al., "Acetic Acid for Analgesic Screening" Fed.
Standard strain albino male mice, weighing 16-18 grams, were administered the treatments either subcutaneously or by gastric lavage. At various times after treatment, writhing was induced by the intraperitoneal administration of 60 mg./kg. of acetic acid (0.6 percent). Each treatment group consisted of 6 mice. The total number of writhes for the treatment group were counted in a 10-minute observation period starting 5 minutes after the acetic acid administration. The treatment totals were compared to controls and a percent inhibition calculated as follows:
Percent Inhibition = 100 - (Treatment total/Control Total × 100)
The ED50 values in the table which follows represents the doses in mg. of compound/kg. of body weight which will produce a 50 percent inhibition of the frequency of writhing.
(In writhing tests, fewer writhes than in controls are read as antinociception.)
Consider `CC(=O)Oc1ccccc1C(=O)O` [A.S.A., reference compound], for which the median effective dose (ED50) worked out at 20 mg/kg.
For the molecule `CNCCc1cccc(Oc2ccccc2)c1.Cl` [N-Methyl-2-(3-phenoxyphenyl)ethylamine hydrochloride], the ED50 stood at 25 mg/kg.
Take `CN(C)CCc1cccc(Oc2ccccc2)c1` [drawing 41]: the ED50 is 35 mg/kg.
The same measure, in the same setting: in the case of `NCCc1cccc(Oc2ccccc2)c1` [CH2 CH2 NH2 . HCl] it was 4 mg/kg.

Staying with this data set, now noted: Mus musculus, sc; subcutaneous, mice, 50 percent inhibition of frequency of writhing; 60 mg./kg. acetic acid intraperitoneal; read-out: Analgesic Writhing Test Subcutaneous ED50.
As for `CC(CN(C)C)c1cccc(Oc2ccccc2)c1` (stereo not drawn) [drawing 44], the ED50 turned out to be 10 mg/kg.
Same read-out and setting: in the case of `CCC(CNC)c1cccc(Oc2ccccc2)c1` (stereo not drawn) it was 20 mg/kg; in that of `CC(CN(C)CC1CC1)c1cccc(Oc2ccccc2)c1` (stereo not drawn) [drawing 46], less than 50 mg/kg.
As for `CNCC(C)c1cccc(Oc2ccccc2)c1` (stereo not drawn) [drawing 43], the ED50 turned out to be 20 mg/kg.
Regarding `CC(CN)c1cccc(Oc2ccccc2)c1` (stereo not drawn) [drawing 42], the ED50 came out at 20 mg/kg.

The subject of the next data set is ultraviolet erythema in guinea pigs. Description: Erythema blocking assay (anti-inflammatory activity, ultraviolet erythema, oral). The format is in vivo, Albino guinea pigs. Conditions: Cavia porcellus, po, read-out: Erythema Blocking Assay Oral ED50. Here is the method: Various compounds within the scope of this invention were tested for anti-inflammatory activity in an erythema blocking assay which involved the following test procedure.
A modification of the Winder et al. (1958) method [Winder, C. V., Wax, J., Burr, V. and Posiere, C. E.: "A Study of Pharmacological Influences on Ultraviolet Erythema in Guinea Pigs", Arch. Int. Pharmacodyn., 116, 261, 1958] was used to measure anti-inflammatory activity of these compounds. Albino guinea pigs of either sex weighing 225-300 grams were shaved on the back and chemically (NAIR®, Lotion Hair Remover, Carter Products, N. Y., N. Y.) depitated, 18-20 hours before exposure to ultraviolet light. The animals were fasted overnight. Immediately after the guinea pigs were treated with a test compound, gummed notebook paper reinforcements were placed on their backs, and they were exposed to a high intensity ultraviolet light for seven seconds. The ultraviolet light source was a Hanovia Lamp (Kromayer-Model 10) which was placed in contact with the skin of the guinea pig's back. After exposure, the reinforcements were removed and their backs wiped clean with a water soaked gauze sponge. The unexposed area under the reinforcements provided an area of contrast for grading the erythema. The animals were randomized and placed in clear plastic partitioned holders 10 × 20 cm. wide and 15 cm. high. Beginning one hour after exposure and thereafter at half-hour intervals for another one and one-half hours, the degree of resulting erythema was graded by an arbitrary scoring system based upon the degree of contrast and redness formed. Anti-inflammatory agents delay the development of the erythema and therefore have their greatest effect at the initial grading periods. Therefore, the scores were weighed by a factor of 4, 3, 2, and 1 at the 1.0-, 1.5-, 2.0-, and 2.5-hour scoring times, respectively. The erythema was graded as follows:
Score Appearance of Exposed Area
______________________________________
0 No redness and no contrast
1 Slight redness with a faint reinforcement outline
2 Slight to moderate redness with a distinct outline
3 Marked redness with a distinct circular outline
Total scores from each treatment group of five or six guinea pigs were compared to the control treatment and the percent inhibition calculated as follows:
100 × Control - Treatment/Control = Percent Inhibition
Test compounds were prepared in a suspension of 1 percent methylcellulose in water and administered orally. Guinea pigs were treated orally with 1.0 cc./kg. of the suspensions. Control animals received 1.0 cc./kg. of a 1 percent methylcellulose suspension. The dose that produces a 50 percent inhibition of the erythemic response (ED50) was calculated. The ED50 results in (mg./kg.) are recorded in the following table: […]
As for `CC(=O)Oc1ccccc1C(=O)O` [A.S.A., reference compound], the ED50 worked out at 50 mg/kg.
For `CN(C)CCc1cccc(Oc2ccccc2)c1.Cl` [N,N-Dimethyl-2-(3-phenoxyphenyl)ethylamine hydrochloride], the median effective dose (ED50) amounted to 7 mg/kg.
`CNCCc1cccc(Oc2ccccc2)c1.Cl` [N-Methyl-2-(3-phenoxyphenyl)ethylamine hydrochloride]: the ED50 is 10 mg/kg.

Still in this data set, the particulars now being: Cavia porcellus; oral, guinea pigs, 50 percent inhibition of erythemic response; single dose in 1 percent methylcellulose, scored 1.0-2.5 hours; read-out: Erythema Blocking Assay Oral ED50.
In the case of `CNC(=O)OCC(C)c1cccc(Oc2ccccc2)c1` (stereo not drawn), the ED50 amounted to 40 mg/kg.
Still for that read-out and setting: in the case of `CNCCC(C)c1cccc(Oc2ccccc2)c1` (stereo not drawn) [drawing 30] it was 5 mg/kg; in that of `CNC(=O)C(C)c1cccc(Oc2ccccc2)c1` (stereo not drawn), 30 mg/kg; in that of `CC(C(=O)NCC(=O)O)c1cccc(Oc2ccccc2)c1` (stereo not drawn), 5 mg/kg.
Same read-out and setting: in the case of `CNCC(C)c1cccc(Oc2ccccc2)c1` (stereo not drawn) [drawing 18] it was 1 mg/kg.
On the same count and under the same terms, the result for `CC(CNCCc1ccccc1)c1cccc(Oc2ccccc2)c1` (stereo not drawn) reads 15 mg/kg; that for `C=CCNCC(C)c1cccc(Oc2ccccc2)c1` (stereo not drawn) [drawing 24], 10 mg/kg; that for `C=CCN(C)CC(C)c1cccc(Oc2ccccc2)c1` (stereo not drawn) [drawing 25], 3 mg/kg.
As to `CC(CCN)c1cccc(Oc2ccccc2)c1` (stereo not drawn) [drawing 29], the ED50 was found to be 2 mg/kg.
As for `CC(C(N)=O)c1cccc(Oc2ccccc2)c1` (stereo not drawn), the ED50 stood at 3 mg/kg.
The same measure, in the same setting: in the case of `CC(CN(C)C1CC1)c1cccc(Oc2ccccc2)c1` (stereo not drawn) [drawing 22] it was 3 mg/kg; in that of `CC(CN)c1cccc(Oc2ccccc2)c1` (stereo not drawn) [drawing 17], 1 mg/kg; in that of `CC(=O)OCC(C)c1cccc(Oc2ccccc2)c1` (stereo not drawn), 8 mg/kg.
The same measure, in the same setting: the result for `CC(c1cccc(Oc2ccccc2)c1)c1nnn[nH]1` (stereo not drawn) [drawing 36] reads 10 mg/kg; that for `CC(CNCC1CC1)c1cccc(Oc2ccccc2)c1` (stereo not drawn), 20 mg/kg; that for `CC(CNC1CC1)c1cccc(Oc2ccccc2)c1` (stereo not drawn) [drawing 20], 9 mg/kg.
Same read-out and setting: in the case of `CC(CN(C)C)c1cccc(Oc2ccccc2)c1` (stereo not drawn) [drawing 19] it was 8 mg/kg.
In the case of `CC(C(=O)NO)c1cccc(Oc2ccccc2)c1` (stereo not drawn), the median effective dose (ED50) amounted to 2 mg/kg.
On the same count and under the same terms, in the case of `CC(CN(C)CC1CC1)c1cccc(Oc2ccccc2)c1` (stereo not drawn) [drawing 23] it was 3 mg/kg; in that of `CC(C)=CCN(C)CC(C)c1cccc(Oc2ccccc2)c1` (stereo not drawn) [drawing 26], 5 mg/kg; in that of `CC(C(=O)N(C)C)c1cccc(Oc2ccccc2)c1` (stereo not drawn), 25 mg/kg.
The same measure, in the same setting: in the case of `CC(CO)c1cccc(Oc2ccccc2)c1` (stereo not drawn) it was 2 mg/kg; in that of `CCC(=O)OCC(C)c1cccc(Oc2ccccc2)c1` (stereo not drawn), 10 mg/kg; in that of `CC(CN(C)CCc1ccccc1)c1cccc(Oc2ccccc2)c1` (stereo not drawn) [drawing 28], 5 mg/kg.
Consider `NCCc1cccc(Oc2ccccc2)c1` [CH2 CH2 NH2 . HCl], for which the ED50 was 75 mg/kg.

System in a further data set: not listed separately
Description: pK'a determination. Format: physicochemical.
Settings: not given
As for `CC(CN(C)CCc1ccccc1)c1cccc(Oc2ccccc2)c1` (stereo not drawn) [N-Methyl-N-(2-phenylethyl)-2-(3-phenoxyphenyl)propylamine hydrochloride], the pKa turned out to be 7.7.
In the case of `CNCCC(C)c1cccc(Oc2ccccc2)c1` (stereo not drawn) [N-Methyl-3-(3-phenoxyphenyl)butylamine hydrochloride], the pKa was 10.
Same read-out and setting: the result for `C=CCN(C)CC(C)c1cccc(Oc2ccccc2)c1` (stereo not drawn) [N-Methyl-N-allyl-2-(3-phenoxyphenyl)propylamine hydrochloride] reads 7.6.
`CC(CCN)c1cccc(Oc2ccccc2)c1` (stereo not drawn) [3-(3-Phenoxyphenyl)butylamine hydrochloride] displayed a pKa of 10.
The same measure, in the same setting: the result for `CN(C)CCc1cccc(Oc2ccccc2)c1.Cl` [N,N-Dimethyl-2-(3-phenoxyphenyl)ethylamine hydrochloride] reads 8.5; that for `CC(C)=CCN(C)CC(C)c1cccc(Oc2ccccc2)c1` (stereo not drawn) [N-Methyl-N-(3-methylbut-2-enyl)-2-(3-phenoxyphenyl)propylamine hydrochloride], 8.5.
On the same count and under the same terms, in the case of `CNCCc1cccc(Oc2ccccc2)c1.Cl` [N-Methyl-2-(3-phenoxyphenyl)ethylamine hydrochloride] it was 9.7; in that of `CC(C(=O)O)c1cccc(Oc2ccccc2)c1` (stereo not drawn) [2-(3-phenoxyphenyl)propionic acid], 7.3; in that of `C=CCNCC(C)c1cccc(Oc2ccccc2)c1` (stereo not drawn) [N-Allyl-2-(3-phenoxyphenyl)propylamine hydrochloride], 8.5.
In turn, `CC(CN(C)CC1CC1)c1cccc(Oc2ccccc2)c1` (stereo not drawn) [N-Methyl-N-cyclopropylmethyl-2-(3-phenoxyphenyl)propylamine hydrochloride] had a pKa of 8.3.
On the same count and under the same terms, the result for `CC(c1cccc(Oc2ccccc2)c1)c1nnn[nH]1` (stereo not drawn) [5-(α-Methyl-3-phenoxybenzyl)-1H-tetrazole] reads 5.8; that for `CC(CN(C)C1CC1)c1cccc(Oc2ccccc2)c1` (stereo not drawn) [N-Methyl-N-cyclopropyl-2-(3-phenoxyphenyl)propylamine hydrochloride], 6.9; that for `O=C(O)Cc1cccc(Oc2ccccc2)c1` [2-(3-phenoxyphenyl)acetic acid], 6.9.
The same measure, in the same setting: in the case of `CC(CNC1CC1)c1cccc(Oc2ccccc2)c1` (stereo not drawn) [N-Cyclopropyl-2-(3-phenoxyphenyl)propylamine hydrochloride] it was 7.9.

For the origin of these results see patent US4145557A, “(Phenoxyphenyl) alkyl acetates, propionates, and carbamates” (Eli Lilly and Company, priority 1977, dated 1979).
